# Assays:
# Huh7.5 cells [1] = test: HCV RNA titers by TaqMan real-time PCR; assay type: cell-based; settings: for 1st passage Log(IU/mL): Table 1b, maximum HCV RNA titer, two values separated by slash = two independent passages; for Peak titers Viral passage Log (IU/mL): Table 2, maximum HCV RNA titer in all passage samples analyzed
# Description: (§1) To determine the efficiency of the developed system, HCV RNA titers are determined in IU/ml (international units/ml) with Taq-Man Real-Time-PCR and infectious titers are determined with a focus-forming units (FFU) method: in this method, infectivity titers are determined by infection of cell culture replicates with serial dilutions of virus containing supernatants and, following immuno-stainings for HCV antigens, counting of HCV-antigen positive cell foci. Alternatively the infectious titers are determined as 50% tissue culture infectious dose.
# (§2) Anti-Core immunostaining was done with mouse anti-HCV Core protein monoclonal antibody (B2) (Anogen Mississauga, Ontario, Canada) as primary antibody and Alexa Fluor 594 goat anti-mouse IgG (H+L) (Invitrogen) as secondary antibody. HCV RNA titers were determined by a TaqMan™ real-time PCR assay. Infectivity titers were determined as follows: 6×10^3 naïve Huh7.5 cells were plated per well in a poly-D-lysine coated 96-well plate (Nunc) one day before inoculation with three replicates of individual 10-fold dilutions of cell culture supernatants. Inocula were left on cells for 48 hours and cells were fixed using ice could methanol. After washing, blocking buffer (1% BSA, 0.2% skim milk) was added for 20 min and endogenous peroxidases were inhibited by application of H2O2 for 5 min. Primary antibody (anti-NS3, clone H26, Abcam, Cambridge, UK) diluted 1:1000 was left on cells for 3-4 days. Secondary antibody was ECL anti-mouse IgG HRP-linked whole antibody (GE Healthcare Amersham, Brondby, Denmark). Staining was developed using DAB substrate kit (DAKO, Glostrup, Denmark). The number of focus-forming units (FFU) per well were counted manually (dilutions with 5-100 FFU counted) or automatically. Automatic counting was performed on an ImmunoSpot Series 5 UV Analyzer™ (CTL Europe GmbH, Aalen, Baden-Württemberg, DE) with customized software. From FFU counts in experimental wells, the mean of spot counts of negative control wells was subtracted (typically around 5 spots).
# Huh7.5 cells [2] = test: Spread of infection in culture, anti-Core immunostaining; assay type: cell-based; settings: for spread in culture / to the majority of culture, day after transfection: Huh7.5 cells, after transfection of RNA transcripts; for percentage of culture infected: day 8 after transfection
# Description: (§3) Culturing of Huh7.5 cells was done as described by Gottwein et al. 2007. One day prior to transfection or infection, naïve Huh7.5 cells were plated at 4×10^5/well in 6-well plates. In vitro transcription was carried out for 2 hours with T7 RNA polymerase (Promega) on 5 μg plasmid linearized with XbaI and treated with Mung Bean Nuclease (New England Biolabs, Beverly, Mass., USA) to yield the exact HCV 3′ end. For transfection, 2.5 μg of unpurified RNA transcripts were incubated with 5 μL Lipofectamine2000™ (Invitrogen) in 500 μL Opti-MEM (Invitrogen) for 20 min at room temperature. RNA-Lipofectamine2000™ transfection complexes were left on cells for 16-24 hours before washing. For infection, virus-containing supernatant was left on cells for 6-24 hours. Supernatants collected during experiments were sterile filtered and stored at −80° C.
# as §2
# Huh7.5 cells [3] = test: Infectivity titers (FFU) in supernatant after RNA transfection or viral passage; assay type: cell-based; settings: for Transfection Log(FFU/mL) / 1st passage Log(FFU/mL): Table 1b; for Transfection Log(FFU/mL): maximum infectivity titer after transfection, Core-NS2 and NS5A of same genotype; for 1st passage Log(FFU/mL): maximum infectivity titer, two values separated by slash = two independent passages; for Peak titers Transfection Log (FFUs/mL) / Peak titers Viral passage Log (FFUs/mL): Table 2; for Peak titers Transfection Log (FFUs/mL): maximum infectivity titer observed in transfection experiments; for Peak titers Viral passage Log (FFUs/mL): maximum infectivity titer observed in viral passage experiments
# Description: as §1, §3, §2
# Huh7.5 cells [4] = test: Genetic stability, direct sequencing of complete ORF after passage; settings: Table 2; ORF sequenced after passage to naïve cells
# Description: RNA was extracted from cell culture supernatant using (Highly Pure Viral Nucleic Acid Kit™, Roche, Mannheim, Del.). RT-PCR was done using SuperScriptIII™ (Invitrogen, Carlsbad, Calif., USA). In 1st round PCR the Advantage 2 PCR Enzyme System was used. Cycle parameters were 35 s at 99° C., 30 s at 67° C. and 10 min (cycle 1-5), 11 min (cycle 6-15), 12 min (cycle 16-25) or 13 min (cycle 26-35) at 68° C. 12˜1 kb products were synthesized in overlapping nested PCRs covering the entire ORF using primer pairs as previously described. Primer pairs 8, 9 and 10 were modified to the genotype specific NS5A sequence (Table 20, SEQ ID NO 163-192). Cycle parameters were 35 s at 99° C. followed by 35 cycles with 35 s at 99° C., 30 s at 67° C. and 6 min at 68° C.
# All sequence reactions were performed at Macrogen Inc., Seoul, South Korea. Sequence analysis was performed with Sequencher™ (Gene Codes Corporation) Vector NTI 11 (Invitrogen) and BioEdit™ (Tom Hall, Ibis Therapeutics). HCV sequences were retrieved from the European HCV database (euHCVdb; at the http: internet location //euhcvdb.ibcp.fr/euHCVdb/) and the Los Alamos HCV sequence database (LANL; at the http: Internet location //hcv.lanl.gov/content/hcv-db/index).
# Genetic stability of NS5A recombinants after passage to naïve cells. Supernatant samples from transfection culture were passaged to naïve Huh7.5 cells and the complete ORF was sequenced after spread of infection in culture to check for further need of adaptation.
# [5] = system: ED43(4a) NS5A recombinant; test: IFN-alpha 2b treatment of infected cultures; assay type: cell-based, hepatitis C virus; settings: genotype 4a, isolate ED43 NS5A recombinant
# Description: (§4) Huh7.5 cells were infected with J6/JFH1 with NS5A of the indicated isolate (or ISDR type). J6/JFH1 was included with two infectious doses to control for impact of dose variability. The infectious dose of other recombinants was in the range between. […] On day three cells were fixed and immunostained for NS3 expression. The number of single infected cells was determined by automated counting of individual wells. Values are shown as percentage infected cells compared to the average for non-treated controls of the given recombinant. Data were fitted to a sigmoidal dose-response curve with the equation Y=1/(1+10^((Log(EC50)−Log(IU/mL))*HillSlope)), where Y is the response in %.
# (§5) 5×10^3 naïve Huh7.5 cells were plated per well in a poly-D-lysine coated 96-well plate (Nunc, Roskilde, D K) one day before infection with different recombinant viruses. Infectious doses were chosen to aim at 400-1000 single infected cells in non-treated wells at the end of the experiment. J6/JFH1 was included with two infectious doses (high and low) to control for impact of dose variability. The infectious dose of other recombinants was in the range between. […] On day three cells were fixed and immunostained for NS3 expression as described above. In parallel, cell viability was monitored with CellTiter™ 96 AQueous One Solution Cell Proliferation Assay (Promega, Madison, Wis. USA). The number of single infected cells was determined by automated counting of individual wells as described above.
# (§6) On day three cells were fixed and immunostained for NS3 expression. The number of single infected cells was determined by automated counting (FIG. 15).
# [6] = system: H77C(1a) NS5A recombinant; test: IFN-alpha 2b treatment of infected cultures; assay type: cell-based, hepatitis C virus; settings: genotype 1a, isolate H77C NS5A recombinant
# Description: as §4, §5, §6
# [7] = system: HK6a(6a) NS5A recombinant; test: IFN-alpha 2b treatment of infected cultures; assay type: cell-based, hepatitis C virus; settings: genotype 6a, isolate HK6a NS5A recombinant
# Description: as §4, §5, §6
# [8] = system: J4(1b) NS5A ISDR mutant recombinant; test: IFN-alpha 2b treatment of infected cultures; assay type: cell-based, hepatitis C virus; settings: genotype 1b, isolate J4 NS5A
# Description: as §4, §5, §6
# J4(1b) NS5A recombinant = test: IFN-alpha 2b treatment of infected cultures; assay type: cell-based, hepatitis C virus; settings: genotype 1b, isolate J4 NS5A recombinant
# Description: as §4, §5, §6
# J6(2a) NS5A recombinant = test: IFN-alpha 2b treatment of infected cultures; assay type: cell-based, hepatitis C virus; settings: genotype 2a, isolate J6 NS5A recombinant
# Description: as §4, §5, §6
# JFH1(2a) NS5A (J6/JFH1) = test: IFN-alpha 2b treatment of infected cultures; assay type: cell-based, hepatitis C virus; settings: genotype 2a, isolate JFH1 NS5A (J6/JFH1)
# Description: as §4, §5, §6
# [9] = system: QC69(7a) NS5A recombinant; test: IFN-alpha 2b treatment of infected cultures; assay type: cell-based, hepatitis C virus; settings: genotype 7a, isolate QC69 NS5A recombinant
# Description: as §4, §5, §6
# S52(3a) NS5A recombinant = test: IFN-alpha 2b treatment of infected cultures; assay type: cell-based, hepatitis C virus; settings: genotype 3a, isolate S52 NS5A recombinant
# Description: as §4, §5, §6
# [10] = system: SA13(5a) NS5A recombinant; test: IFN-alpha 2b treatment of infected cultures; assay type: cell-based, hepatitis C virus; settings: genotype 5a, isolate SA13 NS5A recombinant
# Description: as §4, §5, §6
# TN(1a) NS5A recombinant = test: IFN-alpha 2b treatment of infected cultures; assay type: cell-based, hepatitis C virus; settings: genotype 1a, isolate TN NS5A recombinant
# Description: as §4, §5, §6
Substance,1st passage Log(IU/mL) (Huh7.5 cells [1]),Transfection Log(FFU/mL) (Huh7.5 cells [3]),1st passage Log(FFU/mL) (Huh7.5 cells [3]),Peak titers Transfection Log (FFUs/mL) (Huh7.5 cells [3]),Peak titers Viral passage Log (FFUs/mL) (Huh7.5 cells [3]),Genetically stable (Huh7.5 cells [4]),other results
"HK6a/JFH11389, 1590(HK6a-NS5A): JFH1-based recombinant with Core-NS2 and NS5A of genotype 6a HK6a, SEQ ID NO 56",7.0 Log(IU/mL),–,–,–,–,–,–
"ED43/JFH12819,3269(ED43-NS5A)5270/7131: ED43 Core-NS2/NS5A recombinant with T5270C/A7131G, SEQ ID NO 193",–,–,–,–,–,–,"spread in culture / to the majority of culture, day after transfection (Huh7.5 cells [2]): 17 days; percentage of culture infected (Huh7.5 cells [2]): 30%"
"QC69/JFH12985(QC69-NS5A): JFH1-based recombinant with Core-NS2 and NS5A of genotype 7a QC69, SEQ ID NO 58",7.3 Log(IU/mL),2.7 Log(FFU/mL),4.1 Log(FFU/mL),2.7 Log (FFUs/mL),4.1 Log (FFUs/mL),Yes,infectivity titers in 1st passage / after passage to naïve cells (Huh7.5 cells [3]; naïve Huh7.5 cells): above 10^3 FFU/mL; Peak titers Viral passage Log (IU/mL) (Huh7.5 cells [1]): 7.3 Log (IU/mL)
"SA13/JFH13405, 3696(SA13-NS5A)6284, 7604: SA13 Core-NS2/NS5A recombinant with A6275G and T7604C, SEQ ID NO 55",–,4.5 Log(FFU/mL),3.8 Log(FFU/mL),4.5 Log (FFUs/mL),3.8 Log (FFUs/mL),Yes,–
"SA13/JFH1(SA13-NS5A): SA13 Core-NS2/NS5A recombinant without mutations adaptive for SA13/JFH1, SEQ ID NO 53",–,4.0 Log(FFU/mL),–,–,–,–,"spread in culture / to the majority of culture, day after transfection (Huh7.5 cells [2]): 20 days"
"ED43/JFH12819, 3269(ED43-NS5A): JFH1-based recombinant with Core-NS2 and NS5A of genotype 4a ED43, SEQ ID NO 52",7.1 Log(IU/mL),–,1.8 Log(FFU/mL),2.0 Log (FFUs/mL),1.8 Log (FFUs/mL),No,Peak titers Viral passage Log (IU/mL) (Huh7.5 cells [1]): 7.1 Log (IU/mL); percentage of culture infected (Huh7.5 cells [2]): 1%
IFN-α,–,–,–,–,–,–,"IFN-α, EC50 (IU/mL), original [5]: 0.15 IU/mL; IFN-α, EC50 (IU/mL), original [6]: 0.25 IU/mL; IFN-α, EC50 (IU/mL), original [7]: 0.21 IU/mL; IFN-α, EC50 (IU/mL), 'Sensitive-type' ISDR mutant [8]: 0.12 IU/mL; IFN-α, EC50 (IU/mL), original (J4(1b) NS5A recombinant): 0.12 IU/mL; IFN-α, EC50 (IU/mL), original (J6(2a) NS5A recombinant): 0.12 IU/mL; IFN-α, EC50 (IU/mL), original (JFH1(2a) NS5A (J6/JFH1)): 0.25 IU/mL; IFN-α, EC50 (IU/mL), original [9]: 0.18 IU/mL; IFN-α, EC50 (IU/mL), original (S52(3a) NS5A recombinant): 0.27 IU/mL; IFN-α, EC50 (IU/mL), original [10]: 0.32 IU/mL; IFN-α, EC50 (IU/mL), original (TN(1a) NS5A recombinant): 0.28 IU/mL"
